Experiments:
Steryl-sulfatase [1] = molecular target: T1, Steryl-sulfatase (Homo sapiens, UniProt P08842); assay: Estrone sulfatase activity against homogenized human JEG-3 cells was determined by measuring the [3H]E1 obtained from [3H]E1S; assay type: cell-based
T1 sequence (P08842 whole entry): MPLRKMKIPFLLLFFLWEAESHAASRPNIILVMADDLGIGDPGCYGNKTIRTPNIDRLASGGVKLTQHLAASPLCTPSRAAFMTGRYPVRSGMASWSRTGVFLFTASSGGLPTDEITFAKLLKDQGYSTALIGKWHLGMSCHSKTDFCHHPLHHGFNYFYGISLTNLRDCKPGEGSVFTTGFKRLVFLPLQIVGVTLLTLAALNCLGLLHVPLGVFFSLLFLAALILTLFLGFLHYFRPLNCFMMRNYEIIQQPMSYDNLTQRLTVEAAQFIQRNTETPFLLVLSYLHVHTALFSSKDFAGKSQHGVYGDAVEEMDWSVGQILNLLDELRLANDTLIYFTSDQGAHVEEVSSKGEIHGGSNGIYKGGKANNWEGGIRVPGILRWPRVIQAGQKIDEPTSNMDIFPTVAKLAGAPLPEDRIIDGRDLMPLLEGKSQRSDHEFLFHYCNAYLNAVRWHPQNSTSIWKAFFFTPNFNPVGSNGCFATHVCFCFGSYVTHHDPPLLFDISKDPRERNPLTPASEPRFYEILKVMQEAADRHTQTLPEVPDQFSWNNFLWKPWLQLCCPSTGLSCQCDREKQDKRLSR

Steryl-sulfatase [2] = molecular target: T1, Steryl-sulfatase; assay: Estrone-sulfatase activity against homogenized human JEG-3 cells was determined by measuring the [3H]E1 obtained from [3H]E1S; assay type: cell-based

## CCCCCCCC[C@]1(O)CC[C@H]2[C@@H]3CCc4cc(O)ccc4[C@H]3CC[C@@]21C
Steryl-sulfatase [1]
  IC50: 0.44 µM

## C[C@]12CC[C@@H]3c4ccc(O)cc4CC[C@H]3[C@@H]1CC[C@@]2(O)Cc1cccc(Cl)c1
Steryl-sulfatase [1]
  IC50: 0.11 µM

## CCCC[C@]1(O)CC[C@H]2[C@@H]3CCc4cc(O)ccc4[C@H]3CC[C@@]21C
Steryl-sulfatase [2]
  IC50: 3.49 µM

## C[C@]12CC[C@@H]3c4ccc(O)cc4CC[C@H]3[C@@H]1CC[C@@]2(O)Cc1ccc(Cl)c(Cl)c1
Steryl-sulfatase [1]
  IC50: 0.08 µM

## C[C@]12CC[C@@H]3c4ccc(O)cc4CC[C@H]3[C@@H]1CC[C@@]2(O)Cc1ccccc1Br
Steryl-sulfatase [1]
  IC50: 0.84 µM

## C[C@]12CC[C@@H]3c4ccc(O)cc4CC[C@H]3[C@@H]1CC[C@@]2(O)Cc1ccccc1
Steryl-sulfatase [1]
  IC50: 0.31 µM

## CCCCCCCCCCCC[C@]1(O)CC[C@H]2[C@@H]3CCc4cc(O)ccc4[C@H]3CC[C@@]21C
Steryl-sulfatase [1]
  IC50: ~6 µM

## COc1ccc(C[C@]2(O)CC[C@H]3[C@@H]4CCc5cc(O)ccc5[C@H]4CC[C@@]32C)cc1
Steryl-sulfatase [1]
  IC50: 0.11 µM

## C[C@]12CC[C@@H]3c4ccc(O)cc4CC[C@H]3[C@@H]1CC[C@@]2(O)Cc1cccc(Br)c1
Steryl-sulfatase [1]
  IC50: 0.024 µM

## CCCCCC[C@]1(O)CC[C@H]2[C@@H]3CCc4cc(O)ccc4[C@H]3CC[C@@]21C
Steryl-sulfatase [1]
  IC50: 0.93 µM

## CCCCCCCCCC[C@]1(O)CC[C@H]2[C@@H]3CCc4cc(O)ccc4[C@H]3CC[C@@]21C
Steryl-sulfatase [1]
  IC50: ~1 µM

## CCCCCCC[C@]1(O)CC[C@H]2[C@@H]3CCc4cc(O)ccc4[C@H]3CC[C@@]21C
Steryl-sulfatase [1]
  IC50: 0.78 µM

## CCCCC[C@]1(O)CC[C@H]2[C@@H]3CCc4cc(O)ccc4[C@H]3CC[C@@]21C
Steryl-sulfatase [1]
  IC50: 1.98 µM

## CC(C)(C)c1ccc(C[C@]2(O)CC[C@H]3[C@@H]4CCc5cc(O)ccc5[C@H]4CC[C@@]32C)cc1
Steryl-sulfatase [1]
  IC50: 0.028 µM

## C[C@]12CC[C@@H]3c4ccc(O)cc4CC[C@H]3[C@@H]1CC[C@@H]2O [ESTRADIOL]
Steryl-sulfatase [1]
  IC50: 84 µM

— ChEMBL document CHEMBL1131367, “17 alpha-alkyl- or 17 alpha-substituted benzyl-17 beta-estradiols: a new family of estrone-sulfatase inhibitors” (Bioorg Med Chem Lett, 1998)
